Laboratory results published in patent US8633246B2, “Omega-3 fatty acids for osteoarthritis” (Hill's Pet Nutrition, Inc., priority 2003, dated 2014).

Tests used:
Assay type in all cases: cell-based, dog
[1] = system: canine articular cartilage explants; test: Glycosaminoglycan (GAG) release from cultured canine cartilage explants
Experimental: This example illustrates the release of glycosaminoglycan elicited by omega-3 fatty acids in cultured canine cartilage tissue.
Articular cartilage was obtained from left and right stifles (both femoral condyles and tibial plateau) of dogs. Cartilage explants cultured for 3 days in medium with 10% fetal bovine serum, then washed 3 times in serum free medium. Explants then cultured for 6 days in serum free medium containing 0, 100 or 300 μg/ml n3 fatty acid (EPA, ALA or DHA). After this period in fatty acid medium, all explants were washed 3 times in fatty acid free/serum free medium. Explants were then cultured individually for 4 days in 1 ml of fatty acid and serum free medium containing no additives (C), 10^−6M retinoic acid (RA) or 50 ng/ml oncostatin M (OSM). Note that not all treatments were possible on all dogs because of cartilage availability. The release of proteoglycan into the medium (μg/mg wet weight) was measured at the termination of culture. In the tables below, the mean and standard deviation of glycosaminoglycan (GAG) release for the triplicate cultures for each of the 4 dogs are given. In addition, the media lactate (μg/mg wet weight) concentrations were given for each treatment.

[2] = system: canine cartilage; test: Protein synthesis, 35S-methionine and 35S-cysteine incorporation into cartilage matrix; settings: no catabolic stimuli
Experimental: (§1) To assess the potential effect of n-3 fatty acids on protein and proteoglycan metabolism in canine cartilage, cultures were set up as described in Example 1 except for the final 4 days of culture, no catabolic stimuli were added (i.e., all “control” cultures). During the final 24 hours of culture (1) ^35SO4, or (ii) ^35S-methionine and ^35S-cysteine, were added to the medium to radiolabel newly synthesized proteoglycans and proteins, respectively. The incorporation of radiolabel into the cartilage matrix was measured at the termination of culture. No attempt was made to quantitate loss of radiolabelled material from the cartilage over the 24-hour labeling period. The mean and standard deviation of the incorporation of ^35SO4 (“PG”) or ^35S-methionine and ^35S-cysteine (“PROT”) as DPM/mg wet weight are shown in Table 5 below, […]

[3] = system: canine cartilage; test: Proteoglycan synthesis, 35SO4 incorporation into cartilage matrix; settings: no catabolic stimuli
Experimental: as §1

| Compound | GAG Mean ([1]; Dog 2, C, 100 μg/ml) | GAG Mean ([1]; Dog 2, C, 300 μg/ml) | GAG Mean ([1]; Dog 2, OSM, 100 μg/ml) [μg/mg wet weight] | GAG Mean ([1]; Dog 2, OSM, 300 μg/ml) [μg/mg wet weight] | GAG Mean ([1]; Dog 3, C, 100 μg/ml) [μg/mg wet weight] | GAG Mean ([1]; Dog 3, C, 300 μg/ml) [μg/mg wet weight] | GAG Mean ([1]; Dog 3, OSM, 100 μg/ml) [μg/mg wet weight] | GAG Mean ([1]; Dog 3, OSM, 300 μg/ml) [μg/mg wet weight] | GAG Mean ([1]; Dog 3, RA, 100 μg/ml) [μg/mg wet weight] | GAG Mean ([1]; Dog 3, RA, 300 μg/ml) [μg/mg wet weight] | GAG Mean ([1]; Dog 4, C, 100 μg/ml) [μg/mg wet weight] | GAG Mean ([1]; Dog 4, C, 300 μg/ml) [μg/mg wet weight] | GAG Mean ([1]; Dog 4, OSM, 100 μg/ml) [μg/mg wet weight] | GAG Mean ([1]; Dog 4, OSM, 300 μg/ml) [μg/mg wet weight] | GAG Mean ([1]; Dog 4, RA, 100 μg/ml) [μg/mg wet weight] | GAG Mean ([1]; Dog 4, RA, 300 μg/ml) [μg/mg wet weight] | PROT Mean (incorporation of 35S-methionine and 35S-cysteine) ([2]; 100 μg/ml) [DPM/mg wet weight] | PROT Mean (incorporation of 35S-methionine and 35S-cysteine) ([2]; 300 μg/ml) [DPM/mg wet weight] | PG Mean (incorporation of 35SO4) ([3]; 100 μg/ml) [DPM/mg wet weight] | PG Mean (incorporation of 35SO4) ([3]; 300 μg/ml) [DPM/mg wet weight] | other results |
| --- | --- | --- | --- | --- | --- | --- | --- | --- | --- | --- | --- | --- | --- | --- | --- | --- | --- | --- | --- | --- | --- |
| CC/C=C\C/C=C\C/C=C\C/C=C\C/C=C\CCCC(=O)O [EPA, Eicosapentaenoic acid] | .340 μg/mg wet weight | .573 μg/mg wet weight | 5.25 | 2.83 | 1.673 | 1.567 | 17.85 | 8.1 | 16.223 | 1.537 | 2.687 | 2.1 | 15.883 | 13.493 | 14.393 | 9.093 | 442.0 | 504.0 | 537.333 | 275.667 | GAG Mean ([1]; Dog 1, C (no additives), 100 μg/ml): 1.590 μg/mg wet weight; GAG Mean ([1]; Dog 1, C (no additives), 300 μg/ml): 1.036 μg/mg wet weight; GAG Mean ([1]; Dog 1, OSM (50 ng/ml oncostatin M), 100 μg/ml): 6.293 μg/mg wet weight; GAG Mean ([1]; Dog 1, OSM, 300 μg/ml): 2.167 μg/mg wet weight; GAG Mean ([1]; Dog 1, RA (10^−6M retinoic acid), 100 μg/ml): 8.677 μg/mg wet weight; GAG Mean ([1]; Dog 1, RA, 300 μg/ml): 1.593 μg/mg wet weight |
| CC/C=C\C/C=C\C/C=C\C/C=C\C/C=C\C/C=C\CCC(=O)O [DHA, Docosahexaenoic acid] | .640 μg/mg wet weight | .843 μg/mg wet weight | 8.567 | 6.073 | 1.903 | 1.55 | 11.667 | 11.630 | 21.093 | 19.457 | 2.343 | 2.307 | 24.967 | 16.4 | 11.28 | 11.3 | 503.667 | 564.333 | 156.0 | 123.333 |  |
| CC/C=C\C/C=C\C/C=C\CCCCCCCC(=O)O [ALA, alpha-linolenic acid] | 1.12 μg/mg wet weight | .993 μg/mg wet weight | 8.497 | 6.42 | 2.117 | 2.447 | 22.033 | 23.467 | 20.44 | 24.467 | 2.103 | 1.533 | 11.7 | 19.557 | 12.547 | 14.093 | 503.667 | 393.667 | 246.333 | 443.0 | change in GAG release ([1]; Dog 2, OSM treated cultures): not ALA or DHA significantly decreased |
